Reference: ChEMBL document CHEMBL1955774, “Radiosynthesis of [11C]BBAC and [11C]BBPC as potential PET tracers for orexin2 receptors” (Bioorg Med Chem Lett, 2012)

Columns and labels:
[1] = Partition coefficient, log P of the compound by shake flask method; assay type: physicochemical; details: octanol/water
[2] = tested on: Brain; experiment: Drug uptake in anesthetized rhesus monkey brain at 1.5 ug measured for 122 mins by PET analysis; assay type: ADME, tissue-based, Macaca mulatta; details: in vivo
[3] = tested on: Brain; experiment: Drug uptake in anesthetized rhesus monkey brain at 1.7 ug measured for 122 mins by PET analysis; assay type: ADME, tissue-based, Macaca mulatta; details: in vivo

Structure (SMILES)	logP [1]	Drug uptake [2]	Drug uptake [3]
[11CH3]n1c(SCC(=O)N2CCC[C@H]2C(=O)Nc2ccccc2-c2ccccc2)nc2ccccc21	3.4	Not Active	
[11CH3]n1c(CCC(=O)N2CCC[C@H]2C(=O)Nc2ccccc2-c2ccccc2)nc2ccccc21	2.8		Not Active
